SMILES strings stand for the structures.

The subject of the assay is Human immunodeficiency virus 1. Kind of assay: Antiviral activity against HIV1. Format: functional, organism-based.
For orientation: IC50 means the concentration at which inhibition is half-maximal. Low values mean inhibition by little substance, high ones a need for much substance. As for `O=Cc1c(Cl)n([C@@H]2O[C@H](CF)[C@@H](O)[C@H]2O)c2cc(Cl)c(Cl)cc12`, it took 20 µM to reach half-maximal inhibition (IC50). Turning to `O=C1CSC(c2c(F)cccc2F)N1c1cccc(Br)n1` (stereo unspecified), the IC50 is 0.03 µM.

For `O=C(c1cccc(Cc2ccccc2)c1)c1ncc2cccnc2c1O`, the IC50 came out at 0.04 µM. The compound `O=c1nc(O)ccn1[C@@H]1C=C(F)[C@H](CO)O1` yielded an IC50 of 100 µM.

The compound `CCO/N=C(\c1ccc(Br)cc1)C1CCN(C2(C)CCN(C(=O)c3c(C)cc(C)nc3O)CC2)CC1` had an IC50 of 0.0064 µM. The result for `CCn1cc(C(=O)CC(=O)C(=O)OC)c2ccccc21` reads 19 µM. `Cc1ncc([N+](=O)[O-])n1CCOC(c1ccccc1)c1cccc(-n2cccc2)c1` (stereo unspecified) came in with an IC50 of 14 µM.

`NC(=O)c1cn(S(=O)(=O)c2ccccc2)c2cc(Cl)ccc12` gave an IC50 of 200 µM. In turn, `CCOC(=O)c1[nH]c2ccccc2c1S(=O)(=O)c1cc(Cl)ccc1N` displayed an IC50 of 200 µM.

`OC[C@@H]1O[C@H](n2cnc3c(O)ncnc32)CC1(F)F`: half-maximal inhibition (IC50) required 100 µM. For the compound `CO/N=C(\c1ccc(Br)cc1)C1CCN(C2(C)CCN(C(=O)c3c(C)cccc3O)CC2)CC1`, the IC50 came out at 0.004 µM. Under `O=C1CSC(c2c(Cl)cccc2Cl)N1c1cccnc1` (stereo unspecified) stands 95.1 µM; under `Cc1cc(=O)oc2c3c(c(CBr)cc12)OC(C)(C)[C@H](OC(=O)[C@@]12CC[C@](C)(C(=O)O1)C2(C)C)[C@@H]3OC(=O)[C@@]12CC[C@](C)(C(=O)O1)C2(C)C`, 13.7 µM. The result for `O=C(O)C(=O)CC(=O)c1cccc(Cc2ccccc2)c1` reads 0.1 µM; that for `O=S(=O)(c1ccccc1)n1ccc2ccccc21`, 150 µM; that for `Fc1cccc(F)c1Cn1c(-c2c(F)cccc2F)nc2ccccc21`, 1.7 µM. Under `O=C(O)c1ccc2ccc(/C=C/c3ccco3)nc2c1O` stands 100 µM. In turn, `Cc1cn([C@H]2C=C(F)[C@H](CO)O2)c(=O)nc1O` had an IC50 of 100 µM. The result for `Cc1c(Cc2c(F)cccc2F)nc(NC2CCCC2)[nH]c1=O` reads 0.03 µM; that for `CC(=O)OCc1cc2c(C)cc(=O)oc2c2c1OC(C)(C)[C@H](OC(=O)[C@@]13CC[C@](C)(C(=O)O1)C3(C)C)[C@@H]2OC(=O)[C@@]12CC[C@](C)(C(=O)O1)C2(C)C`, 14.1 µM; that for `COc1ccc2[nH]cc(C(=O)/C=C(\O)c3nnn[nH]3)c2c1`, 40 µM.

`CC1(C)Oc2ccc3cc(CO)c(=O)oc3c2[C@@H](OC(=O)[C@@]23CC[C@](C)(C(=O)O2)C3(C)C)[C@H]1OC(=O)[C@@]12CC[C@](C)(C(=O)O1)C2(C)C`: half-maximal inhibition (IC50) was put at 23 µM.

`CC(C)OC(=O)c1cn(S(=O)(=O)c2ccccc2)c2ccccc12`: half-maximal inhibition (IC50) was put at 5 µM. `CCn1cc(C(=O)/C=C(/O)C(=O)O)c2ccccc21`: the IC50 was found to be 9 µM.

As for `COc1ccc(Cn2nnnc2/C(O)=C/C(=O)c2c[nH]c3ccccc23)cc1`, the IC50 came to 100 µM.

Take `Nc1nc2c(ncn2C2C=CC(OCP(=O)(O)OP(=O)(O)C(F)(F)P(=O)(O)O)C2)c(=O)[nH]1` (stereo unspecified): the IC50 was found to be 25 µM. In the case of `CC(=O)Oc1ccc(/C=C/C(=O)O[C@H](C(=O)O)[C@H](OC(=O)/C=C/c2ccc(OC(C)=O)c(OC(C)=O)c2)C(=O)O)cc1OC(C)=O`, the IC50 stood at 15.7 µM. The result for `Nc1ncnc2c1ncn2[C@H]1C=C(F)[C@H](CO)O1` reads 100 µM; that for `Cc1cn([C@@H]2C=C(F)[C@H](CO)O2)c(=O)nc1O`, 100 µM; that for `Nc1nc(=O)n([C@@H]2S[C@H](CO)C=C2F)cc1F`, 11.6 µM. `Cc1cn([C@H]2C=C[C@@](C)(CO)O2)c(=O)[nH]c1=O` returned an IC50 of 100 µM. Take `Nc1nc(O)c2ncn([C@@H]3CC(F)(F)[C@H](CO)O3)c2n1`: the IC50 amounted to 100 µM.

Compound `Fc1cccc(F)c1Cn1c(-c2c(F)cccc2F)nc2c(Cl)cccc21` came in with an IC50 of 0.4 µM. The compound `O=C(O)/C(O)=C/C(=O)c1cc(OCc2ccccc2)cc(OCc2ccccc2)c1` gave an IC50 of 0.48 µM.

Regarding `CCCCCCCCOC(=O)c1cc2c([nH]c3ccccc32)c(-c2ccc3c(n2)C(=O)C(NC(C)=O)=CC3=O)n1`, half-maximal inhibition (IC50) was put at 7.1 µM. `CCOC(=O)c1cc2ccccc2n1S(=O)(=O)c1ccccc1[N+](=O)[O-]` returned a 50% inhibitory concentration (IC50) of 200 µM. The compound `O=c1cc(Cc2c(F)cccc2F)nc(NC2CCCC2)[nH]1` registered an IC50 of 0.07 µM. In turn, `O=C(O)C(=C\c1ccc(O)c(O)c1)/C(=C\c1ccc(O)c(O)c1)C(=O)O` yielded an IC50 of 2.19 µM. Consider `Nc1nc(F)nc2c1ncn2[C@H]1S[C@@H](CO)C=C1F`, for which the IC50 came to 11.5 µM.

`Cc1ccc(S(=O)(=O)c2c(C(=O)NN)[nH]c3ccc(Cl)cc23)cc1`: the IC50 turned out to be 0.05 µM. Take `O=C1CSC(c2c(F)cccc2Cl)N1c1ccc(Cl)cn1` (stereo unspecified): the IC50 was found to be 2.13 µM. `Cc1c(C(C)c2c(F)cccc2F)nc(SC2CCCC2)[nH]c1=O` (stereo unspecified): the IC50 was determined as 0.005 µM. As to `Cc1cn([C@H]2O[C@H](CO)C=C2F)c(=O)nc1N`, the IC50 worked out at 100 µM. As for `CC(C)C[C@H](NC(=O)[C@H](Cc1ccccc1)C[C@H](O)[C@@H](CC(=O)OC(C)(C)C)Cc1ccccc1)C(=O)N[C@@H](Cc1ccccc1)C(N)=O`, the IC50 was found to be 0.6 µM. Consider `Nc1nc(O)c2ncn([C@H]3C=C(F)[C@H](CO)O3)c2n1`, for which the IC50 amounted to 100 µM.

In turn, `O=C(O)c1ccc2ccc(/C=C/c3cccnc3)nc2c1O` yielded an IC50 of 100 µM. In the case of `CC(=O)NC1=CC(=O)c2ccc(-c3[nH]c(C(=O)O)cc4c5ccccc5nc3-4)nc2C1=O`, the midpoint of inhibition, the IC50, lay at 13.3 µM. `Nc1ncnc2c1ncn2[C@@H]1CC(F)(F)[C@H](CO)O1` came in with an IC50 of 100 µM. As for `O=C(O)/C(O)=C/C(=O)c1cccc(OCc2ccccc2)c1`, the IC50 is 0.35 µM.

`Cc1cc(S(N)(=O)=O)ccc1NC(=O)COc1ccc(Cl)cc1C(=O)c1cc(F)cc(C(F)(F)F)c1`: the IC50 was 0.004 µM. Compound `C=C(C)[C@@H]1CC[C@]2(C(=O)NCCCCCCCC(=O)N[C@@H](CC(C)C)[C@H](O)CC(=O)OCc3ccccc3)CC[C@]3(C)[C@H](CC[C@@H]4[C@@]5(C)CC[C@H](OC(C)=O)C(C)(C)[C@@H]5CC[C@]43C)[C@@H]12` had an IC50 of 28 µM. Take `Cc1c(O)cccc1C(=O)N[C@@H](CSc1ccccc1)[C@H](O)CN1C[C@H]2CCCC[C@H]2C[C@H]1C(=O)NC(C)(C)C`: the midpoint of inhibition, the IC50, lay at 0.027 µM.

As to `OC[C@@H]1C=C(F)[C@@H](n2cnc3c(O)ncnc32)O1`, the IC50 stood at 100 µM.

Take `N#Cc1c(Cl)n([C@@H]2O[C@H](CF)[C@@H](O)[C@H]2O)c2cc(Cl)c(Cl)cc12`: the IC50 came out at 40 µM. `Cc1cc(/C=C/C#N)cc(C)c1Nc1ccnc(Nc2ccc(C#N)cc2)n1` [RILPIVIRINE] came in with an IC50 of 0.0004 µM.

Take `NC(=O)c1cccc2c1nc(-c1c(F)cccc1F)n2Cc1c(F)cccc1F`: it took 0.37 µM to reach half-maximal inhibition (IC50). As to `Cc1cccc(C)c1C(=O)N1CCC(C)(N2CCC(Cc3ccc(Br)cc3)CC2)CC1`, the IC50 was 0.01 µM. The result for `O=c1[nH]cnc2c1ncn2[C@@H]1S[C@H](CO)C=C1F` reads 43.6 µM; that for `Cc1cc(C)nc(N2C(=O)CSC2c2c(F)cccc2Cl)c1` (stereo unspecified), 0.042 µM; that for `O=c1nc(O)ccn1[C@@H]1CC(F)(F)[C@H](CO)O1`, 100 µM.

As for `C=C(C)[C@@H]1CC[C@]2(C(=O)NCCCCCCCCCCC(=O)O)CC[C@]3(C)[C@H](CC[C@@H]4[C@@]5(C)CC[C@H](O)C(C)(C)[C@@H]5CC[C@]43C)[C@@H]12`, half-maximal inhibition (IC50) was put at 0.7 µM.

With `Cn1cc(C(=O)/C=C(/O)C(=O)O)c2ccccc21`, 37 µM corresponded to half-maximal inhibition (IC50).

Consider `Nc1nc(O)c2ncn([C@@H]3O[C@H](CO)C=C3F)c2n1`, for which half-maximal inhibition (IC50) was put at 2.6 µM. As for `NC(=O)O[C@@H]1Cc2ccccc2C1C1=C(O)[C@](Cc2ccccc2)(C[C@H](O)[C@H](Cc2ccccc2)NC(=O)O[C@H]2CCOC2)N=C1` (stereo partly specified), it took 2 µM to reach half-maximal inhibition (IC50). Compound `NNC(=O)c1cc2ccccc2n1S(=O)(=O)c1ccccc1` came in with an IC50 of 200 µM. `Cc1ncc([N+](=O)[O-])n1CCCOC(c1ccccc1)c1ccccc1` registered an IC50 of 35 µM.

`O=c1nc(O)ccn1[C@H]1CC(F)(F)[C@H](CO)O1` showed an IC50 of 100 µM. The compound `Cc1ccnc2c1NC(=O)c1cccnc1N2C1CC1` [NEVIRAPINE] came in with an IC50 of 0.06 µM. Compound `COc1ccc(C(OCCn2c([N+](=O)[O-])cnc2C)c2ccccc2)cc1` (stereo unspecified) registered an IC50 of 86 µM.

In the case of `CCOC(=O)Cc1c(N)nc(N)nc1OCCOCP(=O)(O)O`, 0.0003 µM corresponded to half-maximal inhibition (IC50). For `Cc1ccc(S(=O)(=O)c2c(C(N)=O)[nH]c3ccc(Cl)cc23)cc1`, the IC50 came to 0.003 µM. `NNC(=O)c1[nH]c2ccc(Cl)cc2c1S(=O)(=O)c1ccccc1` returned a 50% inhibitory concentration (IC50) of 0.01 µM.

In the case of `CC(C)CN(C[C@@H](O)[C@H](Cc1ccccc1)NC(=O)O[C@H]1CCOC1)S(=O)(=O)c1ccc(N)cc1`, half-maximal inhibition (IC50) was put at 0.002 µM. `Cc1cn([C@@H]2O[C@H](CO)C=C2F)c(=O)nc1N`: the IC50 was 100 µM.

Take `Cc1cc(C)cc(Sc2c(C(N)=O)[nH]c3ccc(Cl)cc23)c1`: the IC50 was 0.006 µM. `COc1ccnc2[nH]cc(C(=O)C(=O)N3CCN(C(=O)c4ccccc4)C[C@H]3C)c12` showed an IC50 of 0.00085 µM. As for `O=c1cc(Cc2c(F)cccc2F)nc(SC2CCCC2)[nH]1`, half-maximal inhibition (IC50) was put at 0.08 µM. Compound `Cc1cccc(C)c1C(=O)N1CCC(C)(N2CCC(Cc3ccc(Cl)cc3)CC2)CC1` had an IC50 of 0.023 µM.

In turn, `Nc1nc(Cl)c2ncn([C@@H]3O[C@H](CO)C=C3F)c2n1` returned an IC50 of 4.3 µM. Compound `C=C(C)[C@@H]1CC[C@]2(C(=O)NCCCCCCCCCCC(=O)N[C@@H](CC(C)C)C(=O)O)CC[C@]3(C)[C@H](CC[C@@H]4[C@@]5(C)CC[C@H](O)C(C)(C)[C@@H]5CC[C@]43C)[C@@H]12` had an IC50 of 0.46 µM.

With `CCOC(=O)c1cc2ccc(Cl)cc2n1S(=O)(=O)c1ccc(Cl)cc1`, the IC50 worked out at 200 µM. The result for `O=C(O)c1ccc2ccc(/C=C/c3cc(O)cc(/C=C/c4ccc5ccc(C(=O)O)c(O)c5n4)c3)nc2c1O` reads 100 µM; that for `Nc1ccn([C@@H]2CC(F)(F)[C@H](CO)O2)c(=O)n1`, 11.5 µM; that for `O=Cc1cccc2c1nc(-c1c(F)cccc1F)n2Cc1c(F)cccc1F`, 0.1 µM.

For `[N-]=[N+]=NC[C@H]1O[C@@H](n2c(Cl)c(C=O)c3cc(Cl)c(Cl)cc32)[C@H](O)[C@@H]1O`, it took 10 µM to reach half-maximal inhibition (IC50). On to `COC(=O)C(=O)CC(=O)c1cc2ccccc2n1C`, for which the midpoint of inhibition, the IC50, lay at 106 µM.

The record behind these values is ChEMBL document CHEMBL1136837, “Unified QSAR approach to antimicrobials. 4. Multi-target QSAR modeling and comparative multi-distance study of the giant components of antiviral drug-drug complex networks” (Bioorg Med Chem, 2009).
